Data from paper PMC10709007, “GPR162 is a beta cell CART receptor” (iScience, 2023).
Entries after “also recorded” stand apart in the source; their conditions may differ. Where no end group is shown, it is not given here.

Assays:
GIP receptor = assay: Proximity ligation assay (PLA) CART-GIP receptor (specificity control); format: binding, rat; settings: control experiment, goat anti-CART with rabbit anti-GIP receptor
Description: (§1) INS-1 832/13 cells were seeded in 8-well tissue culture chambers (Sarstedt, Nümbrecht, Germany). 10^−7M rat CARTp55-102 (Phoenix Pharmaceuticals, Burlingame, CA) was added to fresh media and cells were incubated for 5 min in a humidified atmosphere (37°C, 5% CO2). Cells were rinsed quickly in ice-cold 1XPBS and then washed twice with ice-cold PBS. Cells were then fixed for 20 min in 4% paraformaldehyde, washed 2 × 10 min in 1XPBS and permeabilized for 15 min in PBS +0.25% Triton X-100. Proximity ligation assay (PLA) (DuoLink In situ Red Starter Kit Goat/Rabbit, Sigma Aldrich) was performed according to the instructions provided by the manufacturers. The following antibody combinations were used for the PLA: goat anti-GPR162 (sc-138323, dilution 1:500, Santa Cruz) with rabbit anti-CART (code 2059A, dilution 1:5000, kindly provided by Dr. Jes T. Clausen, Novo Nordisk, Måløv, Denmark), and goat anti-CART (code sc-18068, dilution 1:400, Santa Cruz) with rabbit anti-GPR162 (code PA5-33655, dilution 1:500, Thermo Scientific). Anti-rabbit GPR160 (code PA5-33650) was combined with anti-goat CART (code sc-18068 from Santa Cruz). Anti-rabbit GNA13 (PA5-100644) was combined with anti-goat GPR162 (sc-138323). Negative controls were omission of both antibodies and the combination of the CART antibody with an antibody toward a receptor with a known ligand. […]

GPR162 [1] = assay: Proximity ligation assay (PLA) CART-GPR162 in INS-1 832/13 cells; format: binding, rat
Description: as §1

rats = settings: cited from earlier work
Excerpt: However, much earlier, a fragment of the CART peptide was identified in extracts of sheep hypothalamus.[2] CART was later found to be expressed also in pancreatic islet cells and in nerve fibers innervating the islets.[3]^,[4]^,[5] […] Since then, multiple biological effects of CART have been established.[4]^,[7] Among them is the effect of CART on islet hormone secretion fr ... || When studying neuropathic pain, Yosten et al.[11] found GPR160 to be necessary for CARTp-mediated cell activation in cell culture. […] Information on GPR160 is scarce, but it has been reported to be a potential marker for prostate cancer,[24] where it is involved in apoptosis and cell-cycle arrest.[25] […] Recently, the notion of GPR160 being the ... || (+ 1 further places)

GPR162 [2] = assay: Co-immunoprecipitation of CART and GPR162 in INS-1 832/13 cells; format: binding, rat; settings: 10^-7M CARTp55-102, 30 min at 4°C, BS3 cross-link, precipitation with CART antibody, GPR162 blot; n = 3 biological replicates
Description: INS-1 832/13 cell lysates were incubated with 10^−7M CARTp55-102 for 30 min at 4°C and then cross-linked with 1 mM BS[3] for 30 min at room temperature, then precipitated using biotin-labelled CART antibody (code H003-62, dilution 1:5000, Phoenix Pharmaceuticals) bound to streptavidin-coated magnetic Dynabeads (Thermo Fisher). Cells lysates were then washed five times in ice-cold PBS and membrane proteins were extracted using MemPER Plus (Thermo Scientific). Protein concentration was then measured using BCA assay (BioRad, Hercules, CA) and 20 μg loaded on a 10% Mini-PROTEAN TGX Stain-Free gel (BioRad). After electrophoresis (200 V for 40 min) and transfer, the PVDF membrane was blocked in TBS-T with 5% fat free dry milk. Primary antibody (anti-rabbit GPR162, code TA331838, 1:100 dilution, Origene, Rockville, MD) was dissolved in 1XTBS-T with 5% BSA (overnight at 4°C). Secondary antibody (anti-rabbit IgG; 1:2500 dilution) was diluted in 1XTBS-T with 5% dry milk. All wash steps were for 10 min in 1XTBS-T.

AtT20 cells = settings: cited from earlier work
Excerpt: However, much earlier, a fragment of the CART peptide was identified in extracts of sheep hypothalamus.[2] CART was later found to be expressed also in pancreatic islet cells and in nerve fibers innervating the islets.[3]^,[4]^,[5] […] Since then, multiple biological effects of CART have been established.[4]^,[7] Among them is the effect of CART on islet hormone secretion fr ...

KATO III cells = settings: KATO III cells, RNA interference of Gpr160; cited from earlier work
Excerpt: When studying neuropathic pain, Yosten et al.[11] found GPR160 to be necessary for CARTp-mediated cell activation in cell culture. […] Information on GPR160 is scarce, but it has been reported to be a potential marker for prostate cancer,[24] where it is involved in apoptosis and cell-cycle arrest.[25] […] Recently, the notion of GPR160 being the ...

INS-1 832/13 cells = assay: Whole-cell capacitance measurement (exocytosis), patch-clamp; format: cell-based, rat
Description: Whole-cell capacitance measurement was performed in INS-1 832/13 cells using HEKA EPC10 patch-clamp amplifiers with the software Suite Pulse + X-Chart Extension (version 8.6 or later; HEKA, Lambrecht-Pfalz, Germany) as previously described.[40] Briefly, INS-1 832/13 cells were seeded in Nunc plastic petri dishes one day prior to the measurement. The intracellular pipette solution contained 125 mM Cs-glutamate, 10 mM CsCl, 10 mM NaCl, 1 mM MgCl2, 5 mM HEPES, 3 mM Mg-ATP, 0.1 mM cAMP and 0.05 mM EGTA (pH 7.2 with CsOH). The perfusing extracellular solution was composed of 118 mM NaCl, 20 mM tetraethylammonium chloride, 5.6 mM KCl, 2.6 mM CaCl2, 1.2 mM MgCl2, 5 mM HEPES and 5 mM glucose (pH 7.4), and the temperature was maintained at 32°C.

CARTp55-102: Rat, mouse CARTp55-102 (Phoenix Pharmaceuticals, Cat#003-62); human form Cat#003-60; cocaine- and amphetamine-regulated transcript peptide (IPIYEKKYGQVPMCDAGEQCAVRKGARIGKLCDCPRGTSCNSFLLKCL; ends and bridges not checked; cysteine pairing not given here)
CART-GIP receptor interaction (PLA control) (GIP receptor): no interaction was found between CART and the GIP receptor | CART-GPR162 interaction (PLA) (GPR162 [1]; 10^-7M rat CARTp55-102, 5 min, 37°C, n = 8): confirmed an interaction between GPR162 and CART | Reduction of CART-GPR162 interaction (PLA) in Gpr162 siRNA cells (GPR162 [1]; Gpr162 siRNA vs control cells, 10^-7M CARTp55-102, n = 8, p < 0.005): 90% | Anorexigenic effects of CART on meal microstructure after Gpr160 knockdown (rats; AAV-mediated knockdown of Gpr160 in dorsal vagal complex, rat): partially attenuates the anorexigenic effects of CART on meal microstructure | Anorexigenic effect (rats): anorexigenic effects | Co-immunoprecipitated GPR162 (GPR162 [2]): stronger binding for GPR162 in the CARTp-treated cells than the binding observed in control cells | Displacement of radiolabeled CART (AtT20 cells): radiolabeled CART to be displaced by CARTp55-102 | c-FOS expression after Gpr160 RNA interference (KATO III cells): RNA interference of Gpr160 prevented CART from activating c-FOS expression | CART-induced increase in capacitance / exocytosis after Gpr162 KD (INS-1 832/13 cells; Gpr162 KD cells, 10^-7M CARTp55-102 1 h, n = 13-14 cells): abolished; also recorded: near-complete abolishment | Increase in capacitance (INS-1 832/13 cells; control cells, 10^-7M CARTp55-102 for 1 h, 5 mM glucose, 32°C, n = 17 cells): approximately 1.3 -fold
